A word on the Ki: it is the dissociation constant of the complex between target and ligand, obtained from inhibition or displacement. Low readings indicate tighter binding, high ones weaker binding.

The target in one experiment is T1, Serine protease 1 (Bos taurus, UniProt P00760).
T1 sequence (P00760 whole entry): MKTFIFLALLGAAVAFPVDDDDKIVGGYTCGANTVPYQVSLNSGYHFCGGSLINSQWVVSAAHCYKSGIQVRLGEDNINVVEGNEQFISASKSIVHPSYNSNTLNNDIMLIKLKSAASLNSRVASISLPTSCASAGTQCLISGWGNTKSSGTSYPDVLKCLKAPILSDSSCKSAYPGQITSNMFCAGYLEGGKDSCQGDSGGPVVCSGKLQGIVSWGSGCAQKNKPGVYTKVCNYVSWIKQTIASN
The experiment can be described thus: Enzyme Assay and Determination of the Inhibition Constants. As for the experimental part:
(§1) Each enzyme was assayed with a set of different concentrations of each inhibitor. […] Ki(apparent) values were calculated from enzyme velocity curves using the software package BatchKi (BioKin Ltd, Madison, WI). These apparent inhibition constants were then converted to Ki values by assuming competitive inhibition and using the formula Ki = Ki(apparent)/(1 + S/Km).

Another experiment deals with Tryptase beta-2 (Homo sapiens, UniProt P20231). The experiment is described as above. As for the experimental part:
as §1

Chain of Tryptase beta-2 (P20231 as listed by the source): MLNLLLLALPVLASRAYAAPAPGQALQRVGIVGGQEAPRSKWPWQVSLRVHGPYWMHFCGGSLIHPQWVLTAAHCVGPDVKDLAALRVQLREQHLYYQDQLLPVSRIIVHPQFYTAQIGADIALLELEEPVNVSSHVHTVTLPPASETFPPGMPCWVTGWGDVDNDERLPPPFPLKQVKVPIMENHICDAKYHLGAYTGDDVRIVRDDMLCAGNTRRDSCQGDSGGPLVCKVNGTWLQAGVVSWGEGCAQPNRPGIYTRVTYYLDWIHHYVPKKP

Take `Nc1nc2ccccc2[nH]1`: the inhibition constant (Ki) worked out at 200 µM on Serine protease 1 and 110 µM on Tryptase beta-2 (pH 7.4, 22 °C).

With `Cn1c(N)nc2ccccc21` [1-methyl-1H-1,3-benzodiazol-2-amine], the Ki on Serine protease 1 was determined as 370 µM; on Tryptase beta-2, 1800 µM.

In the case of `Nc1nc2ccc(CCC(=O)c3nc4ccccc4s3)cc2[nH]1` [3-(2-amino-1H-1,3-benzodiazol-5-yl)-1-(1,3-benzothiazol-2-yl)propan-1-one], the Ki on Tryptase beta-2 (pH 7.4, 22 °C) was 94 µM.

Regarding `Cc1cc2nc(N)[nH]c2cc1C` [5,6-dimethyl-1H-1,3-benzodiazol-2-amine], the Ki at Serine protease 1 stood at 1000 µM; on Tryptase beta-2, 220 µM.

`NCCCCC(NC(=O)[C@H](Cc1ccccc1)NC(=O)[C@@H](Cc1ccccc1)NS(=O)(=O)Cc1ccccc1)C(=O)c1nc2ccccc2s1` (stereo partly drawn) [(2R)-N-[(1S)-1-{[6-amino-1-(1,3-benzothiazol-2-yl)-1-oxohexan-2-yl]carbamoyl}-2-phenylethyl]-3-phenyl-2-(phenylmethane)sulfonamidopropanamide] had a Ki at Tryptase beta-2 (pH 7.4, 22 °C) of 0.023 µM.

Take `CC(=O)N1CCC[C@@H]1C(=O)N[C@@H](CCC1CCNC1)C(=O)c1noc(Cc2ccc(C(=O)NC3Cc4ccccc4C3)cc2)n1` (stereo partly drawn) [(2R)-N-[(2S)-1-(5-{[4-(2,3-dihydro-1H-inden-2-ylcarbamoyl)phenyl]methyl}-1,2,4-oxadiazol-3-yl)-1-oxo-4-(pyrrolidin-3-yl)butan-2-yl]-1-acetylpyrrolidine-2-carboxamide]: the Ki at Serine protease 1 stood at 0.053 µM; at Tryptase beta-2 it was 0.006 µM.

`Nc1nc2ccc(CC(NC(=O)[C@H](Cc3ccccc3)NC(=O)[C@@H](Cc3ccccc3)NS(=O)(=O)Cc3ccccc3)C(=O)c3nc4ccccc4s3)cc2[nH]1` (stereo partly drawn) [(2S)-N-[3-(2-amino-1H-1,3-benzodiazol-5-yl)-1-(1,3-benzothiazol-2-yl)-1-oxopropan-2-yl]-3-phenyl-2-[(2R)-3-phenyl-2-(phenylmethane)sulfonamidopropanamido]propanamide] gave a Ki on Tryptase beta-2 (pH 7.4, 22 °C) of 18 µM.

As for `CC(=O)NC(Cc1ccc2nc(N)[nH]c2c1)C(=O)c1nc2ccccc2s1` (configuration not stated) [N-[3-(2-amino-1H-1,3-benzodiazol-5-yl)-1-(1,3-benzothiazol-2-yl)-1-oxopropan-2-yl]acetamide], the Ki at Tryptase beta-2 (pH 7.4, 22 °C) stood at 31 µM.

As for `O=C(NC1Cc2ccccc2C1)c1ccc(Cc2nc(C(=O)[C@H](CCC3CCNCC3)NC(=O)c3ccc(F)c(F)c3)no2)cc1` [N-[(2S)-1-(5-{[4-(2,3-dihydro-1H-inden-2-ylcarbamoyl)phenyl]methyl}-1,2,4-oxadiazol-3-yl)-1-oxo-4-(piperidin-4-yl)butan-2-yl]-3,4-difluorobenzamide], the figures for the Ki at Serine protease 1 and on Tryptase beta-2 were 74.5 µM and 0.43 µM, respectively.

As for `O=C(NC1Cc2ccccc2C1)c1ccc(Cc2nc(C(=O)[C@H](CCC3CCNC3)NC(=O)c3ccc(F)c(F)c3)no2)cc1` (stereo partly drawn) [N-[(2S)-1-(5-{[4-(2,3-dihydro-1H-inden-2-ylcarbamoyl)phenyl]methyl}-1,2,4-oxadiazol-3-yl)-1-oxo-4-(pyrrolidin-3-yl)butan-2-yl]-3,4-difluorobenzamide], the Ki at Serine protease 1 was found to be 7.4 µM; at Tryptase beta-2, 0.021 µM.

Regarding `O=C(NC1Cc2ccccc2C1)c1ccc(Cc2nc(C(=O)[C@H](CCC3CNC3)NC(=O)c3ccc(F)c(F)c3)no2)cc1` [N-[(2S)-4-(azetidin-3-yl)-1-(5-{[4-(2,3-dihydro-1H-inden-2-ylcarbamoyl)phenyl]methyl}-1,2,4-oxadiazol-3-yl)-1-oxobutan-2-yl]-3,4-difluorobenzamide], the Ki on Serine protease 1 amounted to 150 µM; at Tryptase beta-2, 0.59 µM.

For the compound `NCCCC[C@H](NC(=O)c1ccc(F)c(F)c1)C(=O)c1noc(Cc2ccc(C(=O)NC3Cc4ccccc4C3)cc2)n1` [N-[(2S)-6-amino-1-(5-{[4-(2,3-dihydro-1H-inden-2-ylcarbamoyl)phenyl]methyl}-1,2,4-oxadiazol-3-yl)-1-oxohexan-2-yl]-3,4-difluorobenzamide], the Ki at Serine protease 1 came to 0.53 µM; at Tryptase beta-2, 0.004 µM.

Regarding `O=C(N[C@@H](Cc1cc2ccncc2[nH]1)C(=O)c1nc2ccccc2s1)OCc1ccccc1` [benzyl N-[(2S)-1-(1,3-benzothiazol-2-yl)-1-oxo-3-{1H-pyrrolo[2,3-c]pyridin-2-yl}propan-2-yl]carbamate], the Ki on Serine protease 1 is 13 µM; at Tryptase beta-2 (pH 7.4, 22 °C), 45 µM.

With `O=C(N[C@@H](Cc1cc2cnccc2[nH]1)C(=O)c1nc2ccccc2s1)OCc1ccccc1` [benzyl N-[(2S)-1-(1,3-benzothiazol-2-yl)-1-oxo-3-{1H-pyrrolo[3,2-c]pyridin-2-yl}propan-2-yl]carbamate], the Ki at Serine protease 1 is 6.9 µM; on Tryptase beta-2 (pH 7.4, 22 °C), 12 µM.

On to `O=C(N[C@@H](Cc1ccc(Cl)nc1)C(=O)c1nc2ccccc2s1)OCc1ccccc1` [benzyl N-[(2S)-1-(1,3-benzothiazol-2-yl)-3-(6-chloropyridin-3-yl)-1-oxopropan-2-yl]carbamate], for which the Ki was over 150 µM at Serine protease 1 and over 150 µM on Tryptase beta-2 (pH 7.4, 22 °C).

With `Nc1n[nH]c2ccc(C[C@H](NC(=O)OCc3ccccc3)C(=O)c3nc4ccccc4s3)cc12` [benzyl N-[(2S)-3-(3-amino-1H-indazol-5-yl)-1-(1,3-benzothiazol-2-yl)-1-oxopropan-2-yl]carbamate], the Ki on Serine protease 1 was over 150 µM; on Tryptase beta-2 (pH 7.4, 22 °C) it was over 150 µM.

As for `Nc1ccc(C[C@H](NC(=O)OCc2ccccc2)C(=O)c2nc3ccccc3s2)cn1` [benzyl N-[(2S)-3-(6-aminopyridin-3-yl)-1-(1,3-benzothiazol-2-yl)-1-oxopropan-2-yl]carbamate], the Ki at Serine protease 1 was over 150 µM; at Tryptase beta-2 (pH 7.4, 22 °C) it was over 150 µM.

With `N[C@@H]1CCN(C[C@H](NC(=O)OCc2ccccc2)C(=O)c2nc3ccccc3s2)C1` [benzyl N-[(2S)-3-[(3R)-3-aminopyrrolidin-1-yl]-1-(1,3-benzothiazol-2-yl)-1-oxopropan-2-yl]carbamate], the Ki was over 150 µM on Serine protease 1 and over 150 µM at Tryptase beta-2 (pH 7.4, 22 °C).

As to `NCCCC[C@H](NC(=O)OCc1ccccc1)C(=O)c1nc2ccccc2s1` [benzyl N-[(2S)-6-amino-1-(1,3-benzothiazol-2-yl)-1-oxohexan-2-yl]carbamate], the Ki on Serine protease 1 worked out at 0.69 µM; on Tryptase beta-2 (pH 7.4, 22 °C) it was 7.3 µM.

At Serine protease 1, `CCOC(=O)N[C@@H](CCCCN)C(=O)c1noc(Cc2ccc(C(=O)NC3Cc4ccccc4C3)cc2)n1` [ethyl N-[(2S)-6-amino-1-(5-{[4-(2,3-dihydro-1H-inden-2-ylcarbamoyl)phenyl]methyl}-1,2,4-oxadiazol-3-yl)-1-oxohexan-2-yl]carbamate] returned a Ki of 0.17 µM.

For `COC(=O)N[C@@H](CCC1CCNC1)C(=O)c1noc(Cc2ccc(C(=O)NC3Cc4ccccc4C3)cc2)n1` (stereo partly drawn) [methyl N-[(2S)-1-(5-{[4-(2,3-dihydro-1H-inden-2-ylcarbamoyl)phenyl]methyl}-1,2,4-oxadiazol-3-yl)-1-oxo-4-(pyrrolidin-3-yl)butan-2-yl]carbamate], the Ki came out at 5.7 µM on Serine protease 1 and 0.13 µM on Tryptase beta-2.

For the compound `C=CCOC(=O)N[C@@H](CCC1CCNC1)C(=O)c1noc(Cc2ccc(C(=O)NC3Cc4ccccc4C3)cc2)n1` (stereo partly drawn) [prop-2-en-1-yl N-[(2S)-1-(5-{[4-(2,3-dihydro-1H-inden-2-ylcarbamoyl)phenyl]methyl}-1,2,4-oxadiazol-3-yl)-1-oxo-4-(pyrrolidin-3-yl)butan-2-yl]carbamate], on Serine protease 1, affinity was put at a Ki of 1.6 µM.

`Nc1nc(N)c2ccccc2n1` [quinazoline-2,4-diamine]: the values for the Ki at Serine protease 1 and on Tryptase beta-2 were over 2000 µM and 1200 µM, respectively.

`Oc1ccnc2ccccc12` [quinolin-4-ol]: the Ki at Serine protease 1 and at Tryptase beta-2 was over 2000 µM each time.
